According to patent publication US11752155B2, “Treatment of autism spectrum disorders, obsessive-compulsive disorder and anxiety disorders” (Rugen Holdings (Cayman) Limited, priority 2016, dated 2023):
“And” between values parts separate entries of the source, which are not always exact repeats. Equal values may be shown once. Where a name gives a salt, the structure may show the parent alone. Read-outs that look alike come from different tables or passages of the source.

Tests used:
[1] = molecular target: hERG channel (Homo sapiens (Human), UniProt Q12809); test: hERG channel inhibition, whole cell patch clamp in HEK293 cells; type: cell-based; settings: for inhibition at 5 min, 10 µM: human, HEK293 cells stably expressing hERG channel, pH 7.35; for IC50: Table 1.3B
Chain of hERG channel (Q12809 whole entry): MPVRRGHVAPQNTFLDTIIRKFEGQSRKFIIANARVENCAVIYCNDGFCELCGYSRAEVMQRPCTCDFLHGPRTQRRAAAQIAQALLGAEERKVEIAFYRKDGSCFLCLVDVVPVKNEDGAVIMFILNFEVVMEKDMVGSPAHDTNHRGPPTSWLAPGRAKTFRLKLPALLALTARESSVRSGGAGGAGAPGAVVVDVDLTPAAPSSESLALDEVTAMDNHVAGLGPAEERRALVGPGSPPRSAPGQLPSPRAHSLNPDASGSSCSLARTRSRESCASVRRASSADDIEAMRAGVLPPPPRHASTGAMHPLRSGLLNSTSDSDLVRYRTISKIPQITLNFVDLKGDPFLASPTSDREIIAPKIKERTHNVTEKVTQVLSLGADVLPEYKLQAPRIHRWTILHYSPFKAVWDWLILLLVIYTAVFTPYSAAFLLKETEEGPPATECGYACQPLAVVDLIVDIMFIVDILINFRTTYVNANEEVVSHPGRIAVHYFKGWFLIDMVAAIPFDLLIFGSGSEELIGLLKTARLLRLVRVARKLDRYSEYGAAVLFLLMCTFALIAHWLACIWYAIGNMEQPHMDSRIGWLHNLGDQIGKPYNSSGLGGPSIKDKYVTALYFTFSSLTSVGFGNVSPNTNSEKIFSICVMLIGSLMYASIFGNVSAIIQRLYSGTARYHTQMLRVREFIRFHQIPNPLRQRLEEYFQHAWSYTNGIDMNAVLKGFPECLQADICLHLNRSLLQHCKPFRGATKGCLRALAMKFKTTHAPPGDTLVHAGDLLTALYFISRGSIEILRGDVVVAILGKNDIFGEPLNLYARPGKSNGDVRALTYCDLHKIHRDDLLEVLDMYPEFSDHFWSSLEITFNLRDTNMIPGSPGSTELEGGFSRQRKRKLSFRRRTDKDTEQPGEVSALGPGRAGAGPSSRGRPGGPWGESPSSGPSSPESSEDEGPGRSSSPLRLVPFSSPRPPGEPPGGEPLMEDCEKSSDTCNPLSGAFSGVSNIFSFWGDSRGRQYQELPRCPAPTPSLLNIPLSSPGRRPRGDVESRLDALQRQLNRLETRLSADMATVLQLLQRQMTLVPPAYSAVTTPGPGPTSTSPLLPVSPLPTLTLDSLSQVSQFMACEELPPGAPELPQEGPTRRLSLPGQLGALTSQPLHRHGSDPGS

[2] = molecular target: CYP2D6 (Homo sapiens (Human), UniProt P10635); test: CYP P450 enzyme inhibition in pooled human liver microsomes (dextromethorphan probe); type: in vitro ADME; settings: for inhibition at 10 min, 10 µM: human, pooled human liver microsomes, pH 7.4, probe dextromethorphan, 5 μM, read-out: CYP2D6 Inhibiton at 10 μM; for IC50: Table 1.4B
Chain of CYP2D6 (P10635 whole entry): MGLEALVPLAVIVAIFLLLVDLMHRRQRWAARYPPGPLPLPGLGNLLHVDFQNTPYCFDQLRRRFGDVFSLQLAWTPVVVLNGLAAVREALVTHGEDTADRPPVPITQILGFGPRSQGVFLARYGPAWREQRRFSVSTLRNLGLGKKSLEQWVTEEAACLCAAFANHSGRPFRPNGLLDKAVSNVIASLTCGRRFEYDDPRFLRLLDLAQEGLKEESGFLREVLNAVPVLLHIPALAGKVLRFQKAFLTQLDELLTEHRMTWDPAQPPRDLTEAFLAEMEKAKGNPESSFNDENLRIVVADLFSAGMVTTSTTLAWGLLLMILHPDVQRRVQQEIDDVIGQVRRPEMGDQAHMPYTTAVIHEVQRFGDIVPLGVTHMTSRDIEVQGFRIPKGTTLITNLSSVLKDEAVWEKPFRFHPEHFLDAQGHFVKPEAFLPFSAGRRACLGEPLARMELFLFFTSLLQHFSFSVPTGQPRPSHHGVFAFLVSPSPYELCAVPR
Description: Test compound concentration-dependent response studies were performed in triplicate.

[3] = molecular target: native rat brain NR2B receptors (Rattus norvegicus (Rat), UniProt P35439+Q00960); test: NR2B radioligand binding assay in rat brain using [3H] (E)-N1-(2-methoxybenzyl)-cinnamidine; settings: rat brain NR2B receptors
Chain of native rat brain NR2B receptors (Q00960 27-1482, other chains not shown): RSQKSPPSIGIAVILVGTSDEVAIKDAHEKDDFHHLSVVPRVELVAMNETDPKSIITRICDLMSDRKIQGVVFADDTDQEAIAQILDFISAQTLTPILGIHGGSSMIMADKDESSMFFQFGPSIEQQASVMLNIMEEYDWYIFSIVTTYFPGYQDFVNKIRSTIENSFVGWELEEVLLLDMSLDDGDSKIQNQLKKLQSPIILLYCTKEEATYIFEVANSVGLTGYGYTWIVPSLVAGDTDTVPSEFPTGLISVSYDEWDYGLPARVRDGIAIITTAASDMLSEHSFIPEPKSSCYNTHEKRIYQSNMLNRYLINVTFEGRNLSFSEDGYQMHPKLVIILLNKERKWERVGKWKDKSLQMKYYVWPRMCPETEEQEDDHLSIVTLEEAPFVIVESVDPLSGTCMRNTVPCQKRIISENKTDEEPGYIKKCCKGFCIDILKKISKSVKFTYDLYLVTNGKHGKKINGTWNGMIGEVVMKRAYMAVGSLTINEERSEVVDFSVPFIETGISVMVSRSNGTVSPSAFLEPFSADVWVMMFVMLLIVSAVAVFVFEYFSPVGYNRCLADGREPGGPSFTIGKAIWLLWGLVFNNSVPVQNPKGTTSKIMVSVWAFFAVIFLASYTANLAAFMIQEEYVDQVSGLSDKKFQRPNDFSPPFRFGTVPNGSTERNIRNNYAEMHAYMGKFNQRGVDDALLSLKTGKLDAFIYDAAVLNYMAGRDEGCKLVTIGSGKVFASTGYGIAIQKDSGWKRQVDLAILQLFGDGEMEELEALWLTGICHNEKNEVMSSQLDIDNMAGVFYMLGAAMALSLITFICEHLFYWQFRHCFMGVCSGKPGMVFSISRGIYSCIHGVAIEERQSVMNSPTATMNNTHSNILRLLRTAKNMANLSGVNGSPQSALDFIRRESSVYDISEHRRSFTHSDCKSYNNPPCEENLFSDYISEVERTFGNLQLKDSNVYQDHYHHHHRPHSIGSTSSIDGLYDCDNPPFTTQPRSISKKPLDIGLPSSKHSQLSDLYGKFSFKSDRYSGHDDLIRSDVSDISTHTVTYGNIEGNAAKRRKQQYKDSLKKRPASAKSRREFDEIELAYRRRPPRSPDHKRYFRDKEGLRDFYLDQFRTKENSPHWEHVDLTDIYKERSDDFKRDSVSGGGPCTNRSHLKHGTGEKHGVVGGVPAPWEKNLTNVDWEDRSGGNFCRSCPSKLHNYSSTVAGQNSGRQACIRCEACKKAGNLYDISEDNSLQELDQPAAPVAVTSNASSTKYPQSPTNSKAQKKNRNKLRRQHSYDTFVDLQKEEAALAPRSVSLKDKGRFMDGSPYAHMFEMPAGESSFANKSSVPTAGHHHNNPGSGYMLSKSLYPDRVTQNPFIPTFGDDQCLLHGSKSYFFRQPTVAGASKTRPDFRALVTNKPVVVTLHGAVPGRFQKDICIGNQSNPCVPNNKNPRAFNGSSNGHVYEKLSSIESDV
Description: This example describes an NR2B receptor binding assay in rat brain using [^3H] […] The binding assay method was adapted from a previously described cellular human NR1a/NR2B cloned receptor assay (Kiss et al. Neurochem. Internatl. 2005, 46:453-464) to rat brain tissue. This assay serves as a selective measure of NR2B receptor binding activity in native rat brain receptors. Briefly, the brains of male Wistar rats were homogenized (Polytron) before centrifugation at 40,000×g for 15 minutes at 4° C. After 2 washes, the final pellet was homogenized and stored at −80° C. The protein concentration was determined by Bradford assay. [^3H] […] Non-specific binding was assessed in the presence of excess (10 μM) (E)-N1-(2-nethoxybenzyl)-cinnamidine.
Test compounds were solubilized at 10 mM in DMSO. Then the dilutions were performed with a constant solvent concentration (1% DMSO) in the assay. After incubation for 4.5 hours at room temperature, the assays were filtered on GF/3 filters pretreated with 0.3% (v/v) polyethylenimine (PEI) with a Packard system. The experiment was performed in duplicate (n=2).

[4] = molecular target: human NR1/NR2B (Homo sapiens (Human), UniProt Q05586+Q13224); test: NR2B antagonist activity: calcium influx (Fluo-4) assay in HEK293 cells; type: cell-based; settings: read-out: NR2B IC50
Chain of human NR1/NR2B (Q13224 27-1484, other chains not shown): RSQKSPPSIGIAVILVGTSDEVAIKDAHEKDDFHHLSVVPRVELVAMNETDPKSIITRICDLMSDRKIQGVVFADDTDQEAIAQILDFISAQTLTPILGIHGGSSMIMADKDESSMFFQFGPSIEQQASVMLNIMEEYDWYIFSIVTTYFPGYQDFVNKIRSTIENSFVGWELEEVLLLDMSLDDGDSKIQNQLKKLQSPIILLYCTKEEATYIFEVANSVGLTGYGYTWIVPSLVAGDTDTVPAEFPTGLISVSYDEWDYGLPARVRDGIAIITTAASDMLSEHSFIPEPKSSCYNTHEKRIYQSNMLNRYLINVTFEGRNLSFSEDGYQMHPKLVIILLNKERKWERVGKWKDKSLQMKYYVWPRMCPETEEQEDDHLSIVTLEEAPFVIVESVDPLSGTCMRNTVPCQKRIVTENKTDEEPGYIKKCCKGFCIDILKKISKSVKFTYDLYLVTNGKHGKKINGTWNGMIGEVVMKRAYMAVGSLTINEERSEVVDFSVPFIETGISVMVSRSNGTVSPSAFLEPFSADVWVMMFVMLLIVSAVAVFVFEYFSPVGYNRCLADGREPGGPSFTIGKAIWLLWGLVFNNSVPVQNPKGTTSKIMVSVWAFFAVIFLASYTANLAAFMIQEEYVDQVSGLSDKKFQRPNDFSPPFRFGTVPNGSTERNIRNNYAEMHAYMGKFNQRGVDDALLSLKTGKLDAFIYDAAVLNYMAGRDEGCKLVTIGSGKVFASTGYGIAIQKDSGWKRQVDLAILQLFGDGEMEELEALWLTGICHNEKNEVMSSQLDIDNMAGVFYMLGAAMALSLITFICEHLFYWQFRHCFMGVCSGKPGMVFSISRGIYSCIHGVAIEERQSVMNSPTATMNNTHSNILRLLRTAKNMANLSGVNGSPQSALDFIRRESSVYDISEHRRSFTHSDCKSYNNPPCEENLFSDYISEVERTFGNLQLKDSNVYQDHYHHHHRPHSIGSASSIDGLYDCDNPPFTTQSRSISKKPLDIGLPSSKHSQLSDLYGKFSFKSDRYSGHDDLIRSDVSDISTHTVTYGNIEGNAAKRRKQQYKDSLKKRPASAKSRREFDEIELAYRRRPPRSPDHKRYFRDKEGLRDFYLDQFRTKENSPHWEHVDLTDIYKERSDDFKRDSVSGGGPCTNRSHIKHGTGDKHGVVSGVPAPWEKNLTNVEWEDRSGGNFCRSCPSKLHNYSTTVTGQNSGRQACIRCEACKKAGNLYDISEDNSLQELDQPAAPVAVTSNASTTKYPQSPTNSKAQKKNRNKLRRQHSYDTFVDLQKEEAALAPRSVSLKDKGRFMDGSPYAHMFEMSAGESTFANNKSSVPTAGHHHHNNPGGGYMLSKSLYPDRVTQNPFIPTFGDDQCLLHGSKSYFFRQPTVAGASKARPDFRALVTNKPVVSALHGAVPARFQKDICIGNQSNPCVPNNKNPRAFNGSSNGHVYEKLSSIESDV
Description: Activation of the NR2A or NR2B subtype of NMDA receptor with glutamate as an agonist and glycine co-agonist on these cells results in calcium influx, which can be monitored with fluorescent indicator Fluo-4.
For experiments, the cells were seeded onto poly-D-lysine-coated 96-well black plates with clear bottom (Corning) at a density of ˜50,000 cells/well. After overnight culture, the growth medium was removed from the wells and the cells were incubated at 37° C. for 60 minutes in Hanks buffer containing 4 μM fluo-4-AM (Invitrogen) and 0.1% bovine serum albumin (BSA). After dye-loading, the cells were washed three times with Hanks buffer and incubated for 10 minutes at room temperature with various concentrations of test compounds prepared in Hanks buffer with 0.1% BSA. The cell plates were placed onto an FDSS Cell fluorescence reader (Hamamatsu). After 20 seconds of reading background fluorescence, agonist glutamate at final 100 µM and co-agonist glycine at final 50 μM were added to the cells to activate the receptor, and the resulting fluorescence changes were recorded and quantified. Based on the changes in fluorescence intensity, the pharmacological effect of test compounds was analyzed and the IC50 values derived from a non-linear least squares fitting of the concentration-dependent response to a standard logistic equation using Prism (Graphpad Software, Inc.): Amplitude=Max Amplitude/(1+(IC50/[antagonist])^n).

[5] = system: wild type mice (male NMRI); test: Marble Burying Test in wild type mice; type: in vivo, mouse; settings: for change in vivo at 0.1 mg/kg / change in vivo at 0.3 mg/kg / change in vivo at 3 mg/kg / change in vivo at 10 mg/kg / change in vivo at 1 mg/kg: Mus musculus, read-out: Percent Change in marbles buried relative to vehicle
Description: Animals. Male NMRI mice (20-30 g body weight) were obtained from Janvier Labs (Le Genest-Saint Isle, France) and allowed to acclimate to the animal facility for at least 5 days. Twelve mice were studied per treatment group.
Compound formulation. The test compounds were prepared in a vehicle of 0.5% DMSO and 4% HP-β-CD, and administered orally (PO) or IP. The test compounds or vehicle were administered 20 minutes before the behavioral test described below. Clobazam (8 mg/kg IP), administered 30 minutes before the test, was used as the positive reference compound.
Clobazam was dispersed in 0.2% hydroxypropylmethylcellulose (HPMC) in physiological saline. Dosing volume was 10 mL/kg.
Testing procedure. The Marble Burying Test was conducted as previously described by Broekkamp et al. (Eur. J. Pharmacol. 1986, 126:223-229). Mice exposed to small novel objects (marbles) will bury them in the sawdust floor covering. Anxiolytics decrease the number of marbles buried at non-sedating doses. Mice were individually placed in transparent plastic cages (33×21×18 cm) with 5 cm of sawdust on the floor and 25 marbles grouped in the center of the cage. The cage was covered with an inverted plastic cage. Each test cage, together with the marbles, was impregnated with mouse odor before-hand by leaving 10 mice in the cage for 15 minutes. These mice then played no further role in the experiment. The number of marbles covered by sawdust (⅔ or more) was counted at the end of the 30-minute test. The test was performed blind (compounds versus vehicle).
Statistical analyses. Data were analyzed by comparing test compound-treated groups with the vehicle control group using the Kruskal-Wallis test followed by post-hoc Mann-Whitney U tests. Data comparing the reference compound with the vehicle were analyzed using the Mann-Whitney U test. A p value<0.05 was considered significant.

[6] = system: wild type littermate mice; test: Grooming Test in wild type littermates of Sapap3 and Shank3 complete knockout mice; type: in vivo, mouse
Description: (§1) Animals. The breeding conditions and genotyping methods for Sapap3 and Shank3 complete knockout mice were the same as described in Welch et al. (Nature 2007, 448(7156):894-900) and in Wang et al. (Nat. Commun. 2016, 7:11459), respectively. Homozygous knockout mice and littermate wild type mice of both genders were used at 4 to 8 weeks of age.
(§2) Compound formulation. The test compounds were dissolved in a small volume of dimethyl sulfoxide (DMSO) and diluted in an aqueous solution of 2-hydroxypropyl-beta-cyclodextrin (HP-β-CD) and administered IP. Dosing volume was 10 mL/kg. At 20 minutes after dosing, the mice were subjected to the behavioral test as described below.
(§3) Testing room and apparatus. The test room was maintained under the same conditions as the colony rooms, except the mice were housed in conventional shoe-box cages with food, water, and nesting materials. Animals were housed in the test room 48-72 hours prior to testing, in order to permit the mice to fully acclimate to the test room and conventional housing cages before testing. Tests were conducted in white polyvinyl-fluoride hard-sided foam test arenas (20×20×12 cm). The arenas were indirectly illuminated by dimmable LED light bars placed level with the arena floor and 30 cm away from the external wall of the test arena. This permitted the internal area of the arena to be evenly illuminated at approximately 40 lux. The illumination levels where the mice were housed before testing were about 80-100 lux.
(§4) Testing procedure. Mice were carefully placed into the test arenas 20 minutes after compound administration. Animals were given free exploration of the arena for 10 minutes, after which they were gently sprayed with 4 quick pumps of a water mist (total water volume approximated 1.5-1.7 mL). Mice were then allowed an additional 10 minutes to self-groom and engage in other behaviors before being removed from the arena. All tests were videotaped using cameras mounted above the testing arena and were saved to digital media format using Noldus Media Player software (Noldus Information Technologies, Leesburg, Va.). The mice were only tested once in the acute studies and were repeatedly tested in the sustained effect studies.
(§5) Quantitation of grooming bouts. Analyses of the video recordings were conducted with TopScan behavioral recognition software (Cleversys Inc, Reston, Va.). Configurations were made which scored time spent in grooming. […] These settings permitted automated scoring of grooming by TopScan that corresponded well to manual-scoring of these behaviors by a trained blinded observer using Noldus Observer XT9 (Noldus Information Technologies), with an average corrected kappa of 0.925 (range 0.807-0.983).
(§6) Statistical analyses. Data are presented as means and standard error of the means (SEMs). Analyses were conducted using SPSS 23 (IBM SPSS Statistics, Chicago, Ill.). Time spent in grooming behavior (seconds) over the 10-minute pre- and post-spray time blocks were analyzed with repeated measures analyses of variance (RMANOVA). The pre- and post-spray times were used for the within subject effects and the genotype and compound treatment condition were used as the between subject effects. In sustained effect studies, days were also used for a within subject effect. Some analyses of total groom time were performed in Prism 7.01 (GraphPad Software, La Jolla, Calif.), with one-way ANOVAs to compare genotypes on Day 1 or with RMANOVAs to compare treatment groups within the same genotype across days. Treatments with compounds were compared independently with the vehicle. All post-hoc comparisons were performed with Bonferroni corrections for multiple comparisons to avoid a Type I error. In all cases, a p<0.05 was considered significant.
The wild type littermates of the Sapap3 knockout and Shank3 complete knockout mice were retested after Day 1 compound administration to determine whether the sustained effects were unique to the knockout mice. […]

[7] = system: Sapap3 knockout mice; test: Grooming Test in Sapap3 knockout mice; type: in vivo, mouse
Description: as §1, §2, §3, §4, §5, §6
Next, the effect of two subunit-selective NR2B antagonists administered as a single IP dose and assessed 20 minutes postdose was studied in the Sapap3 knockout mice (n=6-10 mice per treatment group). […]

[8] = mean of replicates, read-out: Arithmetic Mean Ki

SMILES | inhibition at 5 min, 10 µM [1] [%] | inhibition at 10 min, 10 µM [2] [%] | Ki [3, 8] [nM] | IC50 ([4]; Table 1.1B) [nM] | IC50 ([4]; Table 1.3B) [nM] | IC50 ([4]; Table 1.4B) [nM] | change in vivo at 0.3 mg/kg ([5]; ip) [%] | change in vivo at 3 mg/kg ([5]; ip) [%] | IC50 [1] [nM] | IC50 [2] [nM] | other results
O=C(OCc1ccc(Cl)cc1)N1CC[C@H](CNc2nccn3cnnc23)C(F)(F)C1 [E1-1.3^B′] | 19 | 37 | 8.67 | 14.8 | 14.8 | 14.8 |  |  |  |  | 
O=C(OCc1ccc(F)cc1)N1CC[C@H](CNc2nccn3cnnc23)C(F)(F)C1 [E1-1.4^B′] | 11 | 19 |  | 20.5 | 20.5 | 20.5 |  |  |  |  | 
Cc1ccc(COC(=O)N2CC[C@H](CNc3cnccn3)C(F)(F)C2)cc1 [E1-21.2^B′] | 27 | 97 |  | 13.9 | 13.9 | 13.9 |  |  |  |  | 
CCc1ccc(COC(=O)N2CC[C@H](CNc3ncccn3)C(F)(F)C2)cc1 [E1-22.5^B′, (R)-4-ethylbenzyl 3,3-difluoro-4-((pyrimidin-2-ylamino)methyl)piperidine-1-carboxylate methanesulfonate] |  |  |  |  |  |  | 8 | -100 | 9200 | 29000 | change in vivo at 0.1 mg/kg ([5]; ip): -9%; change in vivo at 10 mg/kg ([5]; ip): -100%; change in vivo at 0.3 mg/kg ([5]; po): -11%; change in vivo at 1 mg/kg ([5]; po): -15%; change in vivo at 3 mg/kg ([5]; po): -76%; efficacy in the Marble Burying Test ([5]; lowest test concentration of 1 mg/kg, IP): fully efficacious
O=C(OCc1ccc(C(F)F)cc1)N1CC[C@H](CNc2ncccn2)C(F)(F)C1 [E1-22.6^B′, (R)-4-(difluoromethyl)benzyl 3,3-difluoro-4-((pyrimidin-2-ylamino)methyl)piperidine-1-carboxylate mesylate] |  |  |  |  |  |  | -95 | -98 | 7300 | 41000 | change in vivo at 0.1 mg/kg ([5]; ip): -30%; change in vivo at 10 mg/kg ([5]; ip): -100%; effect on grooming on Day 3 ([6]; 1 mg/kg IP on Day 1, wild type littermates): did not show an effect; effect on grooming on Day 1 ([6]; 1 mg/kg IP, wild type littermates): significant reduction in grooming; effect on grooming on Day 5 ([6]; 3 mg/kg IP on Day 1, wild type littermates): significantly increased grooming; effect on grooming on Day 3 ([6]; 3 mg/kg IP on Day 1, wild type littermates, mesylate): significantly reduced grooming; acute effect on grooming on Day 1 ([6]; wild type littermates of Sapap3 knockout mice, dose-dependent): significantly reduced grooming; significantly reduced grooming through Day ([7]; first dose 3 mg/kg IP on Day 1): 15 days; acute effect on excessive self-grooming ([7]; single IP dose, 20 min postdose, Day 1): significantly reduced grooming; significantly reduced grooming through Day ([7]; single dose 1 mg/kg IP on Day 1): 15 days
Cc1ccc(COC(=O)N2CC[C@H](CNc3ccc(C)cn3)C(F)(F)C2)cc1 [E1-23.26^B′, (R)-4-methylbenzyl 3,3-difluoro-4-(((5-methylpyridin-2-yl)amino)methyl)piperidine-1-carboxylate] |  |  | 6.5 |  |  |  |  |  |  | 9700 | 
Cc1ccc(COC(=O)N2CC[C@H](CNc3cccnn3)C(F)(F)C2)cc1 [E1-24.2^B′, (R)-4-methylbenzyl 3,3-difluoro-4-((pyridazin-3-ylamino)methyl)piperidine-1-carboxylate] |  |  | 2.85 |  |  |  |  |  | 25000 | 15000 | Ki ([3]; individual replicate, read-out: Ki, result from each assay): 2.1 nM and 3.6 nM
Cc1ccc(COC(=O)N2CC[C@H](CNc3ccncc3)C(F)(F)C2)cc1 [E1-38.2^B′, (R)-4-methylbenzyl 3,3-difluoro-4-((pyridin-4-ylamino)methyl)piperidine-1-carboxylate methanesulfonate] |  |  |  |  |  |  | 4 | -76 | 2900 | 1490 | change in vivo at 1 mg/kg ([5]; ip): -18%
